This note sets out measurements from US11905265B1, “3,4-dimethoxy-n′-(2-(5-phenyl-1,3,4-oxadiazol-2ylthio)acetoxy)benzimidamide as an antimicrobial compound” (KING FAISAL UNIVERSITY, priority 2023, dated 2024).

Holding throughout (assay type): cell-based
Assay [1] relates to Bacillus cereus. The assay is described as follows: Agar plate disc-diffusion, antibacterial activity (inhibition zone). Particulars: nutrient agar, 37° C., 48 hours. How it is done:
(§1) The agar plate disc-diffusion method was applied. […] The discs were then placed onto the surface of agar plates (nutrient agar for bacteria and Sabouraud's dextrose agar for fungi) seeded with the test organism. Each plate contained 15 mL of the agar medium, previously seeded with 0.2 mL of the broth culture of each organism pregrown for 18 hours. The plates were incubated at 37° C. for 48 hours, and 72 hours for fungi. The inhibition zones were measured in milimeters. Discs impregnated with DMSO were used as a control, and its inhibition zone was subtracted from the tested compound actual inhibition zone.
(§2) The antibacterial activity was screened against gram positive bacteria namely Bacillus cereus and Staphylococcus aureus and gram-negative bacterial strains namely Pseudomonas aeruginosa and Escherichia coli, while the antifungal activity was screened against Aspergillus flavus and Chrysosporium keratinophilum as shown in Table 1 and 2.
In general terms: In agar diffusion tests the substance spreads into inoculated agar from a disc or well.

The test system of assay [2] is Escherichia coli. The assay is described as above. Particulars: nutrient agar, 37° C., 48 hours. How it is done:
as §1, §2

For assay [3], the system named is Pseudomonas aeruginosa. Described as above. Particulars: nutrient agar, 37° C., 48 hours. How it is done: as §1, §2
For assay [4], the system named is Staphylococcus aureus. The assay is described as above. Conditions: nutrient agar, 37° C., 48 hours. How it is done:
as §1, §2

The subject of assay [5] is Aspergillus flavus. The assay is described as follows: Agar plate disc-diffusion, antifungal activity (inhibition zone). Conditions: Sabouraud's dextrose agar, 72 hours. How it is done:
as §1, §2

The subject of assay [6] is Chrysosporium keratinophilum. The description is as above. Particulars: Sabouraud's dextrose agar, 72 hours. The protocol: as §1, §2
Where [7] appears, read: A = concentration of comp. = 10,000 uL.
Where [8] appears, read: B = concentration of comp. = 30,000 uL.
Setting [9] is: C = concentration of comp. = 50,000 uL.

Take `O=C(O)c1cn(C2CC2)c2cc(N3CCNCC3)c(F)cc2c1=O` [Cip., ciprofloxacin]: the inhibition zone worked out at 29 mm in assay [1] (setting [7]); 30 mm in assay [1] (setting [8]); 42 mm in assay [1] (setting [9]); 30 mm in assay [2] (setting [7]); 39 mm in assay [2] (setting [8]); 60 mm in assay [2] (setting [9]). The inhibition zone in assay [3] (setting [7]) is on record as 29 mm; in assay [3] (setting [8]) it was 30 mm; in assay [3] (setting [9]) it was 53 mm; in assay [4] (setting [7]) it was 43 mm; in assay [4] (setting [8]) it was 44 mm; in assay [4] (setting [9]), 53 mm. Moreover, the inhibition zone is reported as 29 mm in assay [5] (setting [7]); 30 mm in assay [5] (setting [8]); 42 mm in assay [5] (setting [9]); 29 mm in assay [6] (setting [7]); 30 mm in assay [6] (setting [8]); 53 mm in assay [6] (setting [9]).

Turning to `COc1ccc(/C(N)=N/OC(=O)CSc2nnc(-c3ccccc3)o2)cc1OC` [Compound 3, 3,4-dimethoxy-N′-(2-(5-phenyl-1,3,4-oxadiazol-2-ylthio)acetoxy)benzimidamide], the inhibition zone in assay [1] (setting [7]) was 25 mm; in assay [1] (setting [8]), 29 mm; in assay [1] (setting [9]), 41 mm; in assay [2] (setting [7]) it was 26 mm; in assay [2] (setting [8]), 35 mm; in assay [2] (setting [9]) it was 50 mm. Also, the inhibition zone in assay [3] (setting [7]) is 20 mm; in assay [3] (setting [8]), 24 mm; in assay [3] (setting [9]) it was 37 mm; in assay [4] (setting [7]) it was 24 mm; in assay [4] (setting [8]) it was 27 mm; in assay [4] (setting [9]), 43 mm. Moreover, the inhibition zone in assay [5] (setting [7]) worked out at 23 mm; in assay [5] (setting [8]), 27 mm; in assay [5] (setting [9]), 40 mm; in assay [6] (setting [7]), 24 mm; in assay [6] (setting [8]), 26 mm; in assay [6] (setting [9]), 40 mm.
